Key:
human CRTH2 [1] = target: T1, human CRTH2 (Homo sapiens, UniProt Q9Y5Y4, V204A); test: Functional antagonist BRET assay on HEK293 cells stably expressing human CRTH2-Rluc and GFP2-β-arr2; assay type: cell-based; design: expressed in transfected cells; settings: read-out: Antag. IC50
T1 sequence (Q9Y5Y4 1-395 V204A): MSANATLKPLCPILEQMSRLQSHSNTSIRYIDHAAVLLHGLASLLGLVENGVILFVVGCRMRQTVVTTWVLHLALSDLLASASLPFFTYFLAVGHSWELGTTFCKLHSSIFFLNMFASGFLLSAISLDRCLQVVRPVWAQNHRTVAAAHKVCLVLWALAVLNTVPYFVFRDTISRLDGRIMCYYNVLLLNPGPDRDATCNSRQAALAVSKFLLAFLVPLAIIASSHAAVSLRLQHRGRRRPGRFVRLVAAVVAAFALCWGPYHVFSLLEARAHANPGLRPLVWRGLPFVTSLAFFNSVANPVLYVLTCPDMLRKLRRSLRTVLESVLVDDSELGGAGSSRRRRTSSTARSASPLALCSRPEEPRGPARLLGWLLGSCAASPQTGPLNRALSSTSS
Excerpt: (§1) Generation/origin of the cDNA Constructs. The coding sequence of the human CRTH2 receptor (genbank accession no NM_004778) was amplified by PCR from a human hippocampus cDNA library and inserted into the pcDNA3.1(+) expression vector (invitrogen) via 5′ HindIII and 3′ EcoRI. To generate a CRTH2-Renilla luciferase (CRTH2-Rluc) fusion protein, the CRTH2 coding sequence without a STOP codon and Rluc were amplified, fused in frame by PCR and subcloned into the pcDNA3.1(+)Zeo expression vector (invitrogen). Human β-arrestin2 (β-arr2) N-terminally tagged with GFP^2 (βarr2-GFP^2) and Renilla luciferase were purchased from BioSignal Packard Inc, (Montreal, Canada). The sequence identity of the construct was verified by restriction endonuclease digests and sequencing in both directions on an ABI Prism (Applied Biosystems, Foster City, Calif.).
(§2) Cell Culture and Transfection. COS-7 cells were grown in Dulbecco's modified Eagle's medium (DMEM) 1885 supplemented with 10% fetal bovine serum, 100 units/ml penicillin, […] streptomycin, and kept at 37° C. in a 10% CO2 atmosphere. HEK293 cells were maintained in Minimum Essential medium (MEM) supplemented with 10% (v/v) heat inactivated fetal calf serum (HIFCS), 2 mM Glutamax™-I, 1% non essential amino acids (NEAA), 1% sodium pyruvate and 10 μg/ml gentamicin. For binding experiments, COS7 cells were transiently transfected with the CRTH2 receptor using a calcium phosphate-DNA coprecipitation method with the addition of chloroquine (as described by Holst et al., 2001↓). To perform the functional Bioluminescence Resonance Energy Transfer (BRET) assays, a HEK293 cell clone stably expressing βarr2-GFP^2 and CRTH2-Rluc was generated (CRTH2-HEK293 cells).
BRET assay. Functional BRET assays were performed on HEK293 cells stably expressing human CRTH2-Rluc and GFP^2-β-arr2. Prior to their use in the BRET assay cells were detached and re-suspended in D-PBS with 1000 mg/L L-Glucose at a density of 2×10^6 cells/mL. DeepBlueC™ was diluted to 50 μM in D-PBS with 1000 mg/L L-Glucose (light sensitive). 100 μL of cell suspension was transferred to wells in a 96-well microplate (white OptiPlate) and placed in the Mithras LB 940 instrument (BERTHOLD TECHNOLOGIES, Bad Wildbad, Germany). 12 μL/well agonist was then injected by injector 1 and 10 μL/well DeepBlueC™ was injected simultaneously by injector 2. Five seconds after the injections the light output from the well was measured sequentially at 400 nm and 515 nm, and the BRET signal (mBRET ratio) was calculated by the ratio of the fluorescence emitted by GFP^2-β-arr2 (515 nm) over the light emitted by the receptor-Rluc (400 nm). Antagonists were added before placing the microplates into the Mithras LB 940 and allowed to incubate for 15 minutes prior to the addition of agonist and DeepBlueC™. Compounds were dissolved in DMSO and the final DMSO concentration was kept constant at 1% in the assay.
(§3) Curve analysis was performed with the GraphPadPrism software 3.0 (Graphpad Prism Inc., San Diego, USA) and IC50 values were calculated as a measure of the antagonistic potencies.

human CRTH2 [2] = target: T1, human CRTH2; test: Receptor binding assay: [3H]PGD2 competition binding on whole COS-7 cells transiently transfected with CRTH2 (also stable HEK293 cells); design: expressed in transfected cells; host or cells: COS-7 (transient, calcium phosphate)
Excerpt: as §1, §2
Binding assay. 24 h after transfection COS-7 cells were seeded into 96 well plates at a density of 30.000 cells/well. Competition binding experiments on whole cells were then performed about 18-24 h later using 0.1 nM [^3H]PGD2 (NEN, 172 Ci/mmol) in a binding buffer consisting of HBSS (GIBCO) and 10 mM HEPES. Competing ligands were diluted in DMSO which was kept constant at 1% (v/v) of the final incubation volume. Total and nonspecific binding were determined in the absence and presence of 10 μM PGD2. Binding reactions were routinely conducted for 3 h at 4° C. and terminated by 2 washes (100 μl each) with ice cold binding buffer. Radioactivity was determined by liquid scintillation counting in a TOPCOUNTER (Packard) following over night incubation in Microscint 20. Stable HEK293 cells were seeded at a density of 30.000 cells/well 18-24 h prior to the binding assay which was performed essentially as described for COS7 cells above. Determinations were made in duplicates.
as §3

[3] = functional antagonist assay, Table 3
[4] = receptor binding assay, Table 3
[5] = BRET, antagonist incubated 15 minutes prior to agonist
[6] = competition with 0.1 nM [3H]PGD2, whole cells, 3 h at 4° C.

Compound | IC50 (human CRTH2 [1]; [3]) | IC50 (human CRTH2 [2]; [4]) | IC50 (human CRTH2 [1]; [5]) | IC50 (human CRTH2 [2]; [6])
O=C(O)COc1ccc(Br)cc1-c1nc(Cc2ccc(Cl)cc2)no1 [D114, {4-Bromo-2-[3-(4-chloro-benzyl)-[1,2,4]oxadiazol-5-yl]-phenoxy}-acetic acid] | < 500 nM | < 500 nM |  | 
Cc1ccc(-n2cc(C(=O)c3cc(Br)ccc3OC(C)C(=O)O)cn2)c(C)c1 (centres unmarked) [D55, 2-{4-Bromo-2-[1-(2,4-dimethylphenyl)-1H-pyrazole-4-carbonyl]phenoxy}propionic acid] |  |  | < 500 nM | < 500 nM
COc1ccc(-c2ccc(-c3nc(-c4cc(Br)ccc4OCC(=O)O)no3)cc2)cc1 [D134, {4-Bromo-2-[5-(4′-methoxybiphenyl-4-yl)-[1,2,4]oxadiazol-3-yl]phenoxy}acetic acid] |  |  | < 500 nM | < 500 nM
COc1ccccc1-n1cc(C(=O)c2cc(Br)ccc2OC(C)C(=O)O)cn1 (centres unmarked) [D65, 2-{4-Bromo-2-[1-(2-methoxyphenyl)-1H-pyrazole-4-carbonyl]phenoxy}propionic acid] |  |  | < 500 nM | < 500 nM
O=C(O)COc1ccc(Br)cc1C(=O)c1cnn(-c2ccc(OC(F)(F)F)cc2)c1 [D32] |  |  | < 500 nM | < 500 nM
CSc1ccccc1-n1cc(C(=O)c2cc(Br)ccc2OCC(=O)O)cn1 [D44, {4-Bromo-2-[1-(2-methylthiophenyl)-1H-pyrazole-4-carbonyl]phenoxy}acetic acid] |  |  | < 500 nM | < 500 nM
O=C(O)COc1c(Cl)cc(Cl)cc1C(=O)c1cnn(-c2ccccc2)c1 [D13, [2,4-Dichloro-6-(1-phenyl-1H-pyrazole-4-carbonyl)phenoxy]acetic acid] |  |  | > 5000 nM | > 5000 nM
O=C(O)COc1ccc(Br)cc1C(=O)c1cnn(-c2cc(Cl)ccc2Cl)c1 [D59, {4-Bromo-2-[1-(2,5-dichlorophenyl)-1H-pyrazole-4-carbonyl]phenoxy}acetic acid] |  |  | < 500 nM | < 500 nM
CSc1ccccc1-n1cc(C(=O)c2cc(Br)ccc2OC(C)C(=O)O)cn1 (centres unmarked) [D49, 2-{4-Bromo-2-[1-(2-methylthio)-1H-pyrazole-4-carbonyl]phenoxy}propionic acid] |  |  | < 500 nM | < 500 nM
COc1cc(Cc2noc(-c3cc(Br)ccc3OCC(=O)O)n2)cc(OC)c1 [D128, {4-Bromo-2-[3-(3,5-dimethoxybenzyl)-[1,2,4]oxadiazol-5-yl]phenoxy}acetic acid] | 500 to 5000 nM | < 500 nM |  | 
O=C(O)COc1ccc(Br)cc1C(=O)c1cnn(-c2ccccc2C(F)(F)F)c1 [D23, 4-Bromo-2-[1-(2-trifluoromethylphenyl)-1H-pyrazole-4-carbonyl]phenoxyacetic acid] |  |  | < 500 nM | < 500 nM
O=C(O)COc1ccc(Br)cc1-c1coc(-c2ccc(Cl)cc2)n1 [D85, {4-Bromo-2-[2-(4-chlorophenyl)oxazol-4-yl]phenoxy}acetic acid] |  |  | > 5000 nM | < 500 nM
Nc1ccc(OCC(=O)O)c(C(=O)c2cnn(-c3ccccc3)c2)c1 [D66, [4-Amino-2-(1-phenyl-1H-pyrazole-4-carbonyl)phenoxy]acetic acid] |  |  | < 500 nM | 500 to 5000 nM
CCOc1ccccc1-n1cc(C(=O)c2cc(Br)ccc2OCC(=O)O)cn1 [D41, {4-Bromo-2-[1-(2-ethoxyphenyl)-1H-pyrazole-4-carbonyl]phenoxy}acetic acid] |  |  | < 500 nM | < 500 nM
COc1ccc(-c2noc(-c3cc(Br)ccc3OCC(=O)O)n2)cc1 [D101, {4-Bromo-2-[3-(4-methoxy-phenyl)-[1,2,4]oxadiazol-5-yl]phenoxy}acetic acid] | < 500 nM | < 500 nM |  | 
CC(Oc1ccc(Br)cc1C(=O)c1cnn(-c2cc(Cl)ccc2Cl)c1)C(=O)O (centres unmarked) [D63, 2-{4-Bromo-2-[1-(2,5-dichlorophenyl)-1H-pyrazole-4-carbonyl]phenoxy}propionic acid] |  |  | < 500 nM | < 500 nM
Cc1ccc(CN2C(=O)SC(Cc3cc(Br)ccc3OCC(=O)O)C2=O)cc1 (centres unmarked) [D142, 4-Bromo-2-[3-(4-methylbenzyl)-2,4-dioxothiazolidin-5-ylmethyl]phenoxyacetic acid] |  |  | < 500 nM | < 500 nM
O=C(O)COc1ccc(Br)cc1C(=O)c1cnn(-c2ccc(Br)cc2Br)c1 [D33, 4-Bromo-2-[1-(2,4-dibromophenyl)-1H-pyrazole-4-carbonyl]phenoxyacetic acid] |  |  | < 500 nM | < 500 nM
O=C(O)COc1ccccc1C=NNC(=O)c1ccnc(-c2ccccc2)c1 [D155] |  |  | 500 to 5000 nM | < 500 nM
O=C(O)COc1ccc(Br)cc1-c1nc(-c2ccc(F)cc2)no1 [D100, {4-Bromo-2-[3-(4-fluoro-phenyl)-[1,2,4]oxadiazol-5-yl]phenoxy}acetic acid] | < 500 nM | < 500 nM |  | 
COc1ccccc1-n1cc(C(=O)c2cc(Br)ccc2OCC(=O)O)cn1 [D60, {4-Bromo-2-[1-(2-methoxyphenyl)-1H-pyrazole-4-carbonyl]phenoxy}acetic acid] |  |  | < 500 nM | < 500 nM
CC(Oc1ccc(Br)cc1C(=O)c1cnn(-c2ccccc2C(C)C)c1)C(=O)O (centres unmarked) [D79, 2-{4-Bromo-2-[1-(2-isopropylphenyl)-1H-pyrazole-4-carbonyl]phenoxy}propionic acid] |  |  | < 500 nM | < 500 nM
O=C(O)COc1ccc([N+](=O)[O-])cc1C(=O)c1cnn(-c2ccccc2Cl)c1 [D27, 4-Nitro-2-[1-(2-chlorophenyl)-1H-pyrazole-4-carbonyl]phenoxyacetic acid] |  |  | < 500 nM | < 500 nM
O=C(O)COc1ccc(Br)cc1CC1SC(=O)N(Cc2ccc(Cl)cc2)C1=O (centres unmarked) [D141, 4-Bromo-2-[3-(4-chlorobenzyl)-2,4-dioxothiazolidin-5-ylmethyl]phenoxyacetic acid] |  |  | < 500 nM | < 500 nM
Cc1cccc(Cl)c1-n1cc(C(=O)c2cc(Br)ccc2OCC(=O)O)cn1 [D76, {4-Bromo-2-[1-(2-chloro-6-methylphenyl)-1H-pyrazole-4-carbonyl]phenoxy}acetic acid] |  |  | < 500 nM | < 500 nM
O=C(O)COc1ccccc1C(=O)c1cnn(-c2ccccc2)c1 [D2, 2-(1-Phenyl-1H-pyrazole-4-carbonyl)phenoxyacetic acid] |  |  | 500 to 5000 nM | < 500 nM
O=C(O)COc1ccc(Br)cc1C(=O)c1cc(-c2c(Cl)cccc2Cl)no1 [D98, {4-Bromo-2-[3-(2,6-dichloro-phenyl)isoxazole-5-carbonyl]phenoxy}acetic acid] |  |  |  | < 500 nM

From patent US20110269763A1, “CRTH2 receptor ligands for medicinal uses” (7TM Pharma A/S, priority 2004, published 2011)
